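96-well plates; 48 h exposure; 5 concentrations. Endpoints by linear interpolation between flanking doses. Not reached: highest tested concentration assigned. Here, GI50 denotes the concentration required for 50% inhibition of growth.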 Calls of active or inactive are those of the source. Rule as the data show it: active = GI50 up to about 1.1 µM and inactive = higher.
What was measured:
Assay in all cases: DTP human tumour cell line panel, 48 h
UO-31 = tested on: UO-31
SK-MEL-2 = tested on: SK-MEL-2
M14 = tested on: M14
HT-29 = tested on: HT-29
PC-3 = tested on: PC-3
OVCAR-4 = tested on: OVCAR-4
HCT-116 = tested on: HCT-116
HOP-18 = tested on: HOP-18
A498 = tested on: A498
SN12C = tested on: SN12C
K562 = tested on: K562
SF-539 = tested on: SF-539
SK-OV-3 = tested on: SK-OV-3
MCF7 = tested on: MCF7
U-251 = tested on: U-251
SF-268 = tested on: SF-268
NCI-H23 = tested on: NCI-H23
RPMI-8226 = tested on: RPMI-8226
SW-620 = tested on: SW-620
SK-MEL-28 = tested on: SK-MEL-28

Measured: GI50

COc1ccc(OC)c2c1C(=O)C(Cl)=C(Cl)C2=O
inactive: UO-31 2.44 µM | SK-MEL-2 3.06 µM | M14 2.47 µM | HT-29 4.18 µM | PC-3 14.5 µM | OVCAR-4 3.54 µM | HCT-116 1.72 µM | HOP-18 3.54 µM | A498 20.3 µM | SN12C 10.7 µM | K562 > 22.2 µM | SF-539 4.72 µM | SK-OV-3 28.4 µM | MCF7 2.6 µM | U-251 18 µM | SF-268 13.5 µM | NCI-H23 6.37 µM | RPMI-8226 3.02 µM | SW-620 1.81 µM | SK-MEL-28 3.79 µM

CC(C)Cc1ccc(C(C)CC2=CCC(CN(C)C)C2=O)cc1 (stereo not drawn)
inactive: UO-31 16.4 µM | SK-MEL-2 13.2 µM | M14 4.7 µM | HT-29 6.38 µM | PC-3 14.9 µM | OVCAR-4 20.4 µM | HCT-116 4.17 µM | HOP-18 18.5 µM | A498 18.5 µM | SN12C 9.1 µM | K562 2.25 µM | SF-539 16.3 µM | SK-OV-3 17.6 µM | MCF7 1.17 µM | U-251 6.34 µM | SF-268 14.9 µM | NCI-H23 12.9 µM | SW-620 2.12 µM | SK-MEL-28 9.31 µM
active: RPMI-8226 0.333 µM

O=C(CCN1CCCCC1)N1CCc2c([nH]c3ccccc23)C1c1cccnc1 (stereo not drawn)
inactive: UO-31 38.3 µM | SK-MEL-2 18.3 µM | M14 22.9 µM | HT-29 32.4 µM | PC-3 57 µM | OVCAR-4 > 91 µM | HCT-116 61.8 µM | HOP-18 > 100 µM | A498 30.5 µM | SN12C > 81.5 µM | K562 30.8 µM | SF-539 61.4 µM | SK-OV-3 > 100 µM | MCF7 99.3 µM | U-251 80 µM | SF-268 61.4 µM | NCI-H23 > 100 µM | RPMI-8226 39.7 µM | SW-620 > 94 µM | SK-MEL-28 19.5 µM

COCc1cc2c(s1)C(=O)C1=C(C2=O)C2(C=C(Br)C(=O)C(Br)=C2)CCN1
inactive: UO-31 12.8 µM | SK-MEL-2 3.55 µM | M14 1.68 µM | HT-29 3.09 µM | PC-3 3.15 µM | OVCAR-4 1.65 µM | HCT-116 1.41 µM | HOP-18 15.1 µM | A498 15.7 µM | SN12C 8.15 µM | K562 2.11 µM | SF-539 4.65 µM | SK-OV-3 17 µM | MCF7 10.6 µM | U-251 11.4 µM | SF-268 4.86 µM | NCI-H23 2.38 µM | RPMI-8226 3.25 µM | SW-620 3.21 µM | SK-MEL-28 7.67 µM

C/C(=N\NC(=S)NNC(=S)N(C)c1ccccc1)c1ccccn1
inactive: SK-MEL-2 5.68 µM | OVCAR-4 1.75 µM | SN12C 1.6 µM | K562 2.31 µM | SF-539 2.07 µM | SK-OV-3 1.48 µM | MCF7 1.84 µM | SF-268 2.91 µM | NCI-H23 2.79 µM | SK-MEL-28 4.25 µM
active: UO-31 0.577 µM | M14 0.454 µM | HT-29 0.455 µM | HCT-116 0.673 µM | HOP-18 0.198 µM | U-251 1.11 µM | RPMI-8226 0.912 µM | SW-620 0.489 µM

CCN(CC)CCNc1ccc2ncn3c4ccc(O)cc4c(=O)c1c23
inactive: SK-MEL-2 6.78 µM | M14 1.28 µM | PC-3 1.49 µM | OVCAR-4 1.28 µM | HOP-18 5.92 µM | A498 1.12 µM | SK-MEL-28 7.76 µM
active: UO-31 0.429 µM | HT-29 0.679 µM | HCT-116 0.212 µM | SN12C 0.22 µM | K562 1.04 µM | SF-539 0.458 µM | SK-OV-3 0.785 µM | MCF7 0.15 µM | U-251 0.193 µM | SF-268 0.721 µM | NCI-H23 0.194 µM | RPMI-8226 0.267 µM | SW-620 0.216 µM
